Laboratory results reported in US4997828A, “Method of weight control by low level administration of cobalt protoporphyrin or cobalt mesoporphyrin” (The Rockefeller University, priority 1989, dated 1991).
Entries after “also recorded” stand apart in the source; their conditions may differ.

What was measured:
[1] = Body weight and naso-anal length of adult male rats after weekly subcutaneous injections (Example 1); type: in vivo, Sprague-Dawley rat
Method: (§1) Adult male Sprague-Dawley rats (≈250 g) were injected subcutaneously with CoPP 1 μmol/kg b.w. (12 rats) or vehicle (12 rats) on day 0. Thereafter, injections (Vertical arrows in FIG. 1) were repeated weekly until 10 doses had been given. Animals were allowed Purina rat chow and water ad libitum and animal weights were recorded thrice weekly; means are presented in FIG. 1 ( is control and treated animals). On day 71, 6 control rats and 6 CoPP-treated rats were sacrificed, blood collected for hormone determinations and hepatic mitochondrial and microsomal fractions prepared for biochemical assays. These procedures were repeated at day 124 for the remainder of the animals.
(§2) The effects of 10 serial doses of CoPP 1 μmol/kg b.w. on weight,
(§3) *n = 12; for all other parameters, n = 6 animals per treatment.
**As calculated by Student's Ttest. The only significant changes are in […]

Testosterone [2] = assay: Testosterone concentration in blood of subcutaneously treated rats (Example 1); type: in vivo, Sprague-Dawley rat; settings: 10 serial doses of CoPP 1 μmol/kg b.w. s.c., n = 6
Method: as §1, §2, §3

LH = LH concentration in blood of subcutaneously treated rats (Example 1); type: in vivo, Sprague-Dawley rat; settings: Day 124; 10 serial doses of CoPP 1 μmol/kg b.w. s.c.; n = 6; control 21.1 ± 3.29
Method: as §1, §2, §3

Insulin = Insulin concentration in blood of subcutaneously treated rats (Example 1); type: in vivo, Sprague-Dawley rat; settings: Day 124; 10 serial doses of CoPP 1 μmol/kg b.w. s.c.; n = 6; control 156 ± 47.6
Method: as §1, §2, §3

Cytochrome P-450 [3] = assay: Hepatic cytochrome P-450 content of treated rats (Example 1); type: in vivo, Sprague-Dawley rat; settings: Day 71; 10 serial doses of CoPP 1 μmol/kg b.w. s.c.; n = 6; control 1.06 ± 0.23
Method: as §1, §2, §3

Heme oxygenase = assay: Hepatic heme oxygenase activity of treated rats (Example 1); type: in vivo, Sprague-Dawley rat; settings: Day 71; 10 serial doses of CoPP 1 μmol/kg b.w. s.c.; n = 6; control 1.85 ± 0.15
Method: as §1, §2, §3

[4] = tested on: δ-Aminolevulinic acid synthase; assay: Hepatic δ-aminolevulinic acid synthase activity of treated rats (Example 1); type: in vivo, Sprague-Dawley rat; settings: Day 71; 10 serial doses of CoPP 1 μmol/kg b.w. s.c.; n = 6; control 0.29 ± 0.02
Method: as §1, §2, §3

[5] = tested on: Aryl hydrocarbon hydroxylase; assay: Hepatic aryl hydrocarbon hydroxylase activity of treated rats (Example 1); type: in vivo, Sprague-Dawley rat; settings: Day 71; 10 serial doses of CoPP 1 μmol/kg b.w. s.c.; n = 6; control 275 ± 24
Method: as §1, §2, §3

[6] = tested on: 7-Ethoxycoumarin de-ethylase; assay: Hepatic 7-ethoxycoumarin de-ethylase activity of treated rats (Example 1); type: in vivo, Sprague-Dawley rat; settings: Day 71; 10 serial doses of CoPP 1 μmol/kg b.w. s.c.; n = 6; control 0.41 ± 0.04
Method: as §1, §2, §3

[7] = tested on: Ethylmorphine demethylase; assay: Hepatic ethylmorphine demethylase activity of treated rats (Example 1); type: in vivo, Sprague-Dawley rat; settings: Day 71; 10 serial doses of CoPP 1 μmol/kg b.w. s.c.; n = 6; control 0.43 ± 0.05
Method: as §1, §2, §3

Aniline hydroxylase = assay: Hepatic aniline hydroxylase activity of treated rats (Example 1); type: in vivo, Sprague-Dawley rat; settings: Day 71; 10 serial doses of CoPP 1 μmol/kg b.w. s.c.; n = 6; control 59 ± 3.48
Method: as §1, §2, §3

hormone concentrations = assay: Hormone concentrations of treated rats, overall statement (Example 1); type: in vivo, Sprague-Dawley rat
Method: as §1

[8] = tested on: heme pathway and cytochrome P-450-dependent enzyme activities; assay: Heme pathway and cytochrome P-450-dependent enzyme activities of treated rats, overall statement (Example 1); type: in vivo, Sprague-Dawley rat; settings: CoPP 1 μmol/kg b.w. s.c. weekly, 10 doses
Method: as §1

[9] = Body weight of adult male Beagle dogs after weekly intramuscular injections (Example 2); type: in vivo, Beagle dog
Method: (§4) Adult male Beagle dogs (≈1 year) were housed in single runs with free access to Purina dog chow and water. On day 0, 3 animals were injected intramuscularly in the upper posterolateral aspect of the hindlimb with CoPP 2.5 μmol/kg b.w., and 3 animals with control vehicle. Injections (Vertical arrows in FIG. 2) were repeated weekly, in alternating hindlimbs, until a: total of 9 doses had been given. Animal weights were recorded thrice weekly and means are presented in FIG. 2 ( is control and is treated animals).

testosterone [10] = assay: Serum testosterone of male Beagle dogs after weekly intramuscular injections (Example 2); type: in vivo, Beagle dog; settings: for Testosterone (serum): n = 3
Method: as §4
The effects of 9 serial doses of CoPP 2.5 μmol/kg b.w. on serum
testosterone concentrations in male Beagle dogs.

[11] = Body weight of adult male rats after intraventricular injection, dose response (Example 3); type: in vivo, rat
Method: Adult male rats were anesthetized during stereotaxic placement of chronic indwelling catheters into the third ventricle of the brain. After 3-4 days post-operative recovery, animals were injected intraventricularly (i/vt) with small volumes (<10μl) of vehicle or CoPP 0.1, 0.2 (o) or 0.4 μmol/kg b.w.

[12] = Body weight of adult male rats treated intraventricularly (Example 4); type: in vivo, rat; settings: i/vt CoPP 0.4 μmol/kg b.w.; 5 animals; FIG. 4
Text: FIG. 4 depicts the means ±SEM of the body weights of 5 adult male rats treated i/vt with vehicle and 5 animals with CoPP 0.4 μmol/kg b.w. ( , lower panel).

testosterone [13] = assay: Testosterone concentration of adult male rats treated intraventricularly (Example 4); type: in vivo, rat; settings: i/vt CoPP 0.4 μmol/kg b.w.; 5 animals; FIG. 4
[14] = Prolonged body weight loss after single intraventricular treatment (Example 5); type: in vivo, rat; settings: single i/vt CoPP 0.2 or 0.4 μmol/kg b.w.; n=4; FIG. 5
Text: The prolonged loss of body weight following single i/vt treatments with CoPP 0.2 or 0.4 μmol/kg b.w. are contrasted with that of vehicle-treated rats in FIG. 5 (n=4).

[15] = Weight control and P/F ratio of animals, general statements; type: in vivo; settings: for Improved P/F ratio, lowest dosage / Weight control activity, lowest dosage: decreasing dosage
endocrine system [16] = assay: Endocrine suppression activity in animals, general statements; type: in vivo
cytochrome P-450 [17] = settings: administration to animals; lowest level 25 μm/kg body weight; cited from earlier work
endocrine system [18] = settings: cited from earlier work; for Endocrine suppression, weight control and P/F ratio: levels of administration described in the copending application; for Production of gonadal hormones / Production of thyroid hormones: parenteral administration, copending application
[19] = CoPP 1 μmol/kg b.w. s.c. weekly, 10 doses
[20] = similar administration to FIGS. 1-5
[21] = at about 10 μm/kg b.w., say 9.8 μm/kg b.w.
[22] = preferred range 0.1 to 0.3 μm/kg b.w.

C=CC1=C(C)c2cc3[n-]c(cc4nc(cc5[n-]c(cc1n2)c(C)c5CCC(=O)[O-])C(CCC(=O)[O-])=C4C)c(C)c3C=C.[Co+2].[H+].[H+] [CoPP, cobalt protoporphyrin]
Difference in weights of control and CoPP-treated rats [1, 19]: highly significant | Body weight ([1]; Day 71, 10 serial doses of CoPP 1 μmol/kg b.w. s.c. weekly, n = 12, control 568 ± 16): 442 ± 5 g | Body weight ([1]; Day 124, 10 serial doses of CoPP 1 μmol/kg b.w. s.c., n = 6, control 633 ± 39): 541 ± 12 g | Body weight change (FIG. 1) ([1]; adult male rats, Example 1): decrease in body weight | Testosterone (Testosterone [2]; Day 71, control 1.96 ± 0.29): 1.72 ± 0.23 ng/mL | Testosterone (Testosterone [2]; Day 124, control 2.64 ± 0.25): 3.59 ± 0.90 ng/mL | LH (LH): 24.2 ± 6.14 ng/mL | Insulin (Insulin): 191 ± 43.6 μU/ml | Cytochrome P-450 (Cytochrome P-450 [3]): 0.70 ± 0.12 nmol/mg protein | Heme oxygenase (Heme oxygenase): 2.08 ± 0.21 nmol bilirubin/mg prot/hr | δ-Aminolevulinic acid synthase [4]: 0.30 ± 0.01 μmol ALA/mg prot/90' | Aryl hydrocarbon hydroxylase [5]: 291 ± 28 pmol 80HBP/mg prot/hr | 7-Ethoxycoumarin de-ethylase [6]: 0.53 ± 0.03 μmol/mg prot/hr | Ethylmorphine demethylase [7]: 0.49 ± 0.04 μmol form/mg prot/hr | Aniline hydroxylase (Aniline hydroxylase): 74 ± 4.62 nmol p-aminop./mg prot/hr | Difference in hormone concentrations vs control (hormone concentrations; [19]): no significant differences | Hormone concentration change (FIG. 1 with Table I) (hormone concentrations; adult male rats, Example 1): without decrease in hormone concentration | Difference in heme pathway and cytochrome P-450-dependent enzyme activities vs control [8]: no significant differences | Body weight change (FIG. 2) ([9]; adult male dogs, Example 2): decrease in body weight | Mean weights ([9]; after first 3 weeks, CoPP 2.5 μmol/kg b.w. i.m. weekly): progressively decreased thereafter to a nadir at day 74 | Recovery of body weight ([9]; by day 84, CoPP 2.5 μmol/kg b.w. i.m. weekly, 9 doses): returned to their pre-treatment weights | Mean weights ([9]; first 3 weeks of treatment, CoPP 2.5 μmol/kg b.w. i.m. weekly): unchanged | Loss of body weight ([9]; nadir at day 74, CoPP 2.5 μmol/kg b.w. i.m. weekly, 9 doses): approximately 25 % of their body weight | Testosterone (serum) (testosterone [10]; Day 0 (before start of the experiment), CoPP 2.5 μmol/kg b.w. group, control 1.82 ± 0.65): 2.03 ± 0.57 ng/mL | Testosterone (serum) (testosterone [10]; Day 62, 9 serial doses of CoPP 2.5 μmol/kg b.w. i.m. weekly, control 1.73 ± 0.52): 2.15 ± 1.52 ng/mL | Testosterone (serum) (testosterone [10]; Day 112, 9 serial doses of CoPP 2.5 μmol/kg b.w. i.m. weekly, control 1.67 ± 0.03): 1.92 ± 0.83 ng/mL | Testosterone level change (FIG. 2 with Table II) (testosterone [10]; adult male dogs, Example 2): no decrease in testosterone levels | Effect on testosterone concentrations (testosterone [10]; days 62 and 112, CoPP 2.5 μmol/kg b.w. i.m.): no effect | Weight loss (FIG. 3) ([11]; adult male rats, intraventricular administration, Example 3): weight loss achieved | Effects on body weight, dose dependence ([11]; i/vt CoPP 0.1, 0.2 or 0.4 μmol/kg b.w., 4-6 animals per group): dose responsive | i/vt dosage relative to s/c dosage required to elicit the same changes (fold less) ([11]; intraventricular versus s/c administration): 50-100 fold less | Weight loss [12]: typical weight loss | Testosterone concentrations vs vehicle-treated rats (testosterone [13]): without significant changes in testosterone concentration; also recorded: not significantly different | Loss of body weight after single i/vt treatment [14]: prolonged weight loss; also recorded: prompt decrease in weight | Weight differential between treated and untreated animals [14]: maintained for the duration of the treatment | Improved P/F ratio, lowest dosage [15]: continues even down to as low as 0.1 μm/kg b.w. | Weight control activity, lowest dosage [15]: continues even down to as low as 0.1 μm/kg b.w. | P/F ratio [15, 20]: improved P/F ratios | Endocrine suppression activity (endocrine system [16]; at 4 μm/kg b.w.): effectively disappeared | Endocrine suppression activity (endocrine system [16]; [21]): negligible | Endocrine suppression activity (endocrine system [16]; dependence on dosage): declines as the dosage is decreased | Endocrine suppression activity (endocrine system [16]; [22]): substantially no endocrine suppression activity | Cytochrome P-450 content of the liver (cytochrome P-450 [17]): deplete the cytochrome P-450 content of the liver | Endocrine suppression, weight control and P/F ratio (endocrine system [18]): endocrine suppression, weight control and improved P/F ratio all take place simultaneously | Production of gonadal hormones (endocrine system [18]): limit the production of gonadal hormones | Production of thyroid hormones (endocrine system [18]): suppress the production of thyroid hormones

CCC1=C(C)c2cc3[n-]c(cc4[n-]c(cc5nc(cc1n2)C(C)=C5CC)c(C)c4CCC(=O)[O-])c(CCC(=O)[O-])c3C.[Co+2].[H+].[H+] [CoMP, cobalt mesoporphyrin]
Improved P/F ratio, lowest dosage [15]: continues even down to as low as 0.1 μm/kg b.w. | Weight control activity, lowest dosage [15]: continues even down to as low as 0.1 μm/kg b.w. | P/F ratio [15, 20]: improved P/F ratios | Results relative to those illustrated in the figures for CoPP [15, 20]: Comparable results | Endocrine suppression activity (endocrine system [16]; at 4 μm/kg b.w.): effectively disappeared | Endocrine suppression activity (endocrine system [16]; [21]): negligible | Endocrine suppression activity (endocrine system [16]; dependence on dosage): declines as the dosage is decreased | Endocrine suppression activity (endocrine system [16]; [22]): substantially no endocrine suppression activity | Endocrine suppression, weight control and P/F ratio (endocrine system [18]): endocrine suppression, weight control and improved P/F ratio all take place simultaneously | Production of gonadal hormones (endocrine system [18]): limit the production of gonadal hormones | Production of thyroid hormones (endocrine system [18]): suppress the production of thyroid hormones
